# Where “and” joins values, the source holds several entries; their conditions need not be identical. Identical values can stand only once.
# How the values were obtained:
# Format in all cases: physicochemical
# [1] = Hygroscopicity and photosensitivity of starting material NADH, exposure to light, RH 75%, 20° C.; conditions: for weight (increase in weight relative to time zero): T = 0 2.00 g
# Method: The hygroscopicity and photosensitivity of the starting material NADH (s.m.) was determined as increase in weight, relative to time zero, the relative content being given in p.a.: […]
# [2] = Stability of the protected NADH product relative to the starting material, 5 days at 53° C.
# [3] = Hygroscopicity of starting material SAMe, exposure at 75% RH and 20° C.; conditions: for weight (increase in weight relative to time zero): T = 0 2.00 g
# Method: The hygroscopicity of the starting material SAMe (s.m.) was determined as increase in weight, relative to the time zero, the relative content being given in p.a.: […]
# [4] = Stability of the protected SAMe product relative to the starting material, 5 days at 53° C.
# [5] = Increase of hygroscopicity in % by weight, SAMe, 75% RH 40° C.
# [6] = 1 day exposure to light, RH 75%, 20° C.
# [7] = 2 days exposure to light, RH 75%, 20° C.
# [8] = 3 days exposure to light, RH 75%, 20° C.
# [9] = 4 days exposure to light, RH 75%, 20° C.
# [10] = 5 days at 53° C., listed as s.m.
smiles,measurement,setting,value
NC(=O)C1=CN([C@@H]2O[C@H](COP(=O)(O)OP(=O)(O)OC[C@H]3O[C@@H](n4cnc5c(N)ncnc54)[C@H](O)[C@@H]3O)[C@@H](O)[C@H]2O)C=CC1 [NADH],NAD+ impurity,[1]; [6],1.21%
same,NADH content,[1]; [6],97.9%
same,Water (KF),[1]; [6],1.82%
same,weight (increase in weight relative to time zero),[1]; [6],2.20 g
same,NAD+ impurity,[1]; [7],1.55%
same,NADH content,[1]; [7],97.3%
same,Water (KF),[1]; [7],1.91%
same,weight (increase in weight relative to time zero),[1]; [7],2.40 g
same,NAD+ impurity,[1]; [8],2.89%
same,NADH content,[1]; [8],96.0%
same,Water (KF),[1]; [8],2.44%
same,weight (increase in weight relative to time zero),[1]; [8],2.50 g
same,NAD+ impurity,[1]; [9],3.45%
same,NADH content,[1]; [9],95.5%
same,Water (KF),[1]; [9],2.86%
same,weight (increase in weight relative to time zero),[1]; [9],2.80 g
same,NAD+ impurity,[1]; T = 0,0.55%
same,NADH content,[1]; T = 0,98.4%
same,Water (KF),[1]; T = 0,1.2%
same,% NAD+ content,[2]; 5 days at 53° C.,2.3%
same,% NADH content,[2]; 5 days at 53° C.,98.4%
same,% water (KF),[2]; 5 days at 53° C.,1.5%
same,% NAD+ content,[2]; T = 0,0.5%
same,% NADH content,[2]; T = 0,100.1%
same,% water (KF),[2]; T = 0,1.3%
"C[S+](CC[C@H](N)C(=O)O)C[C@H]1O[C@@H](n2cnc3c(N)ncnc32)[C@H](O)[C@@H]1O (stereo partly shown) [SAMe, S-adenosylmethionine]","hygroscopicity and stability, in words","[3]; 75% RH and 20° C., 4 days",high hygroscopicity and high instability
same,% MTA,[3]; 1 day at 75% RH and 20° C.,1.5%
same,% adenine + adenosine,[3]; 1 day at 75% RH and 20° C.,1.3%
same,% ionic SAMe,[3]; 1 day at 75% RH and 20° C.,51.1%
same,% water (KF),[3]; 1 day at 75% RH and 20° C.,2.1%
same,weight (increase in weight relative to time zero),[3]; 1 day at 75% RH and 20° C.,2.40 g
same,% MTA,[3]; 2 days at 75% RH and 20° C.,1.9%
same,% adenine + adenosine,[3]; 2 days at 75% RH and 20° C.,2.4%
same,% ionic SAMe,[3]; 2 days at 75% RH and 20° C.,50.3%
same,% water (KF),[3]; 2 days at 75% RH and 20° C.,2.9%
same,weight (increase in weight relative to time zero),[3]; 2 days at 75% RH and 20° C.,2.90 g
same,% MTA,[3]; 3 days at 75% RH and 20° C.,2.4%
same,% adenine + adenosine,[3]; 3 days at 75% RH and 20° C.,2.9%
same,% ionic SAMe,[3]; 3 days at 75% RH and 20° C.,47.3%
same,% water (KF),[3]; 3 days at 75% RH and 20° C.,3.4%
same,weight (increase in weight relative to time zero),[3]; 3 days at 75% RH and 20° C.,3.50 g
same,% MTA,[3]; 4 days at 75% RH and 20° C.,3.0%
same,% adenine + adenosine,[3]; 4 days at 75% RH and 20° C.,3.2%
same,% ionic SAMe,[3]; 4 days at 75% RH and 20° C.,45.1%
same,% water (KF),[3]; 4 days at 75% RH and 20° C.,3.8%
same,weight (increase in weight relative to time zero),[3]; 4 days at 75% RH and 20° C.,4.50 g
same,% MTA,[3]; T(0),T(0) = 0.6%
same,% adenine + adenosine,[3]; T(0),T(0) = 0.4%
same,% ionic SAMe,[3]; T(0),T(0) = 52.1%
same,% water (KF),[3]; T(0),T(0) = 1.5%
same,% water (KF),[4]; 5 days at 53° C.,1.5%
same,% Ionic SAMe content,[4]; [10],48.5% and 47.3%
same,% MTA,[4]; [10],3.45% and 3.87%
same,% adenine + adenosine,[4]; [10],3.35% and 3.54%
same,% Ionic SAMe content,"[4]; T = 0, listed as s.m",52.4%
same,% MTA,"[4]; T = 0, listed as s.m",0.3%
same,% adenine + adenosine,"[4]; T = 0, listed as s.m",0.6%
same,% water (KF),"[4]; T = 0, listed as s.m",1.6%
same,% Ionic SAMe content,"[4]; T = 0, listed as s.m.",52.1%
same,% MTA,"[4]; T = 0, listed as s.m.",0.6%
same,% adenine + adenosine,"[4]; T = 0, listed as s.m.",0.4%
same,% water (KF),"[4]; T = 0, listed as s.m.",1.5%
same,Increase of hygroscopicity in % by weight,[5]; 1 day at 75% RH and 40° C.,50%
same,Increase of hygroscopicity in % by weight,[5]; T = 0,0.00 % by weight

# From patent US20080152765A1, “Coated Granular Formulations” (priority 2005, published 2008)
